Test results published in patent US20130065922A1, “NOVEL AMIDES AS FUNGICIDES” (priority 2010, published 2013).

Columns and labels:
Plasmopara viticola = assay: whole plant or invertebrate; type: in vivo; details: foliar, read-out: inhibit fungal infestation
Phytophthora infestans = assay: whole plant or invertebrate; type: in vivo; details: in Solanum lycopersicum, foliar, read-out: inhibit fungal infestation
[1] = tested on: Blumeria graminis f. Sp. tritici (Erysiphe graminis f. Sp. tritici); assay: Blumeria graminis f. Sp. tritici (Erysiphe graminis f. Sp. tritici)/Wheat/Leaf Disc Preventative (Powdery Mildew on Wheat); type: in vivo; details: foliar, 200 ppm, wheat leaf segments cv. Kanzler, preventative, 6-8 days after application, untreated control infected to over 80%, read-out: inhibit fungal infestation
[2] = tested on: Phaeosphaeria nodorum (Septoria nodorum); assay: Phaeosphaeria nodorum (Septoria nodorum)/Wheat/Leaf Disc Preventative (Glume Blotch); type: in vivo; details: Parastagonospora nodorum, foliar; 200 ppm; wheat leaf segments cv. Kanzler, preventative; 5-7 days after application; untreated control infected to over 80%; read-out: inhibit fungal infestation
Pythium ultimum = assay: Pythium ultimum/Liquid Culture (Seedling Damping Off); type: cell-based; details: Globisporangium ultimum; 200 ppm; liquid culture (PDB), 24° C., growth inhibition photometrically 2-3 days after application; read-out: inhibit fungal infestation

## CO/N=C/C(C)(C)NC(=O)C(Oc1cc(Cl)c2ncc(OC)cc2c1)SC (stereo not drawn) [Compound 15, 2-(8-Chloro-3-methoxy-quinolin-6-yloxy)-N-(2-methoxyimino-1,1-dimethyl-ethyl)-2-methylsulfanyl-acetamide]
Plasmopara viticola
  inhibition at 200 ppm: ≥ 80%
Phytophthora infestans
  inhibition at 200 ppm: ≥ 80%
[1]
  inhibition at 200 ppm: ≥ 80%
other
  melting point: 124 to 125 °C
[2]
  inhibition at 200 ppm: ≥ 80%
Pythium ultimum
  inhibition at 200 ppm: ≥ 80%
